Reference: ChEMBL document CHEMBL4477252, “Optimization of microtubule affinity regulating kinase (MARK) inhibitors with improved physical properties” (Bioorg Med Chem Lett, 2016)

Assays:
[1] = molecular target: RAC-alpha serine/threonine-protein kinase (Homo sapiens, UniProt P31749); test: Inhibition of full-length recombinant human His-tagged AKT1-alpha expressed in baculovirus expression system by Z'-LYTE assay
[2] = molecular target: Rho-associated protein kinase 2 (Homo sapiens, UniProt O75116); test: Inhibition of recombinant human N-terminal GST-tagged ROCK2 (1 to 552 residues) catalytic domain expressed in baculovirus expression system by Z'-LYTE assay
[3] = molecular target: Proto-oncogene tyrosine-protein kinase Src (Homo sapiens, UniProt P12931); test: Inhibition of full-length recombinant human His-tagged SRC expressed in baculovirus expression system by Adapta assay
[4] = molecular target: Tyrosine-protein kinase ABL1 (Homo sapiens, UniProt P00519); test: Inhibition of full-length human His-tagged ABL1 expressed in baculovirus expression system by Z'-LYTE assay
[5] = molecular target: Serine/threonine-protein kinase Chk2 (Homo sapiens, UniProt O96017); test: Inhibition of full-length recombinant human His-tagged CHEK2 expressed in baculovirus expression system by Z'-LYTE assay
[6] = molecular target: T1, Tyrosine-protein kinase ZAP-70 (Homo sapiens, UniProt P43403); test: Inhibition of full-length recombinant human His-tagged cytoplasmic ZAP70 expressed in baculovirus expression system by Z'-LYTE assay
T1 sequence (P43403 whole entry): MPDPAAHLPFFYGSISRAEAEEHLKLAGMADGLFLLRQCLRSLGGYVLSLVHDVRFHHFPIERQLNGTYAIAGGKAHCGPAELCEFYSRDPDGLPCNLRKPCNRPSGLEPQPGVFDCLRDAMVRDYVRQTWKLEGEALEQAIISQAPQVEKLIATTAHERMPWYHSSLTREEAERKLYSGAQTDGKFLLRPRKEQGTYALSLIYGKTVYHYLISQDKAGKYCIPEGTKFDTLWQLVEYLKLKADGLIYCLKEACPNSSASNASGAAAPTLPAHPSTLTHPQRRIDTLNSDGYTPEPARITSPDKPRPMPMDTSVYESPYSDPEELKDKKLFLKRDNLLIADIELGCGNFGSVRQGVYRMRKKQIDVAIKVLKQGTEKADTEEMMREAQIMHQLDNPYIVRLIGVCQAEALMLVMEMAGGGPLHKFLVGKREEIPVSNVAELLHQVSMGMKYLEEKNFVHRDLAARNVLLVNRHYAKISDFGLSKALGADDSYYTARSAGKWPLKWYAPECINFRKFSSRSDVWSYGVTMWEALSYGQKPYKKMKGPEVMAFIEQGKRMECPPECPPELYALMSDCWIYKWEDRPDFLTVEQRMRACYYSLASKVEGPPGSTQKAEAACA

[7] = molecular target: Serine/threonine-protein kinase PAK 1 (Homo sapiens, UniProt Q13153); test: Inhibition of full-length recombinant human GST-tagged PAK1 expressed in baculovirus expression system by Z'-LYTE assay
[8] = molecular target: Tyrosine-protein kinase JAK1 (Homo sapiens, UniProt P23458); test: Inhibition of recombinant human GST-tagged cytoplasmic JAK1 (866 to 1154 residues) catalytic domain expressed in baculovirus expression system by Z'-LYTE assay
[9] = molecular target: Cyclin-dependent kinase 5/CDK5 activator 1 (Homo sapiens, UniProt Q00535); test: Inhibition of full-length recombinant human GST and His-tagged CDK5/P25 expressed in baculovirus expression system by Z'-LYTE assay
[10] = molecular target: T2, Serine/threonine-protein kinase TBK1 (Homo sapiens, UniProt Q9UHD2); test: Inhibition of full-length recombinant human GST-tagged TBK1 expressed in insect cells by Z'-LYTE assay
T2 sequence (Q9UHD2 whole entry): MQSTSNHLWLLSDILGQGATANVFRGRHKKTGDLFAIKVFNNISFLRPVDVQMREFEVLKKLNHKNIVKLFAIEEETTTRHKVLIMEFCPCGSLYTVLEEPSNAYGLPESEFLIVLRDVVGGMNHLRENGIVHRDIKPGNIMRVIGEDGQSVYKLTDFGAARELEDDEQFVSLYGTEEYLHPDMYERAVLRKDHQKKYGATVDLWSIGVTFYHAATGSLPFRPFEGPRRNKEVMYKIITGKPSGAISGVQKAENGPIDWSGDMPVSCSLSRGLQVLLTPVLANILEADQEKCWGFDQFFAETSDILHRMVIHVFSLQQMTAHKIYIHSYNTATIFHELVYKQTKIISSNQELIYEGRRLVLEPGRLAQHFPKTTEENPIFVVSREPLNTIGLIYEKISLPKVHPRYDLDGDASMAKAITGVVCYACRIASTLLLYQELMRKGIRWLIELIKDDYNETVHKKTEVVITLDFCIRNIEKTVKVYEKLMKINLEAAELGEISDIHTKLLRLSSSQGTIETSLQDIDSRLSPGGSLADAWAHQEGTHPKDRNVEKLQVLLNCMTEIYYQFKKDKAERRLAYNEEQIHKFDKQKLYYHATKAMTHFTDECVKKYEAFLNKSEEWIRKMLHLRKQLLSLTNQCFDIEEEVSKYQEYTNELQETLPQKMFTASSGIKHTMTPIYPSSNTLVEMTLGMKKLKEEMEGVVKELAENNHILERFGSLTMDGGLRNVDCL

[11] = molecular target: Mitogen-activated protein kinase 8 (Homo sapiens, UniProt P45983); test: Inhibition of full-length recombinant human His-tagged MAPK8 expressed in baculovirus expression system by Z'-LYTE assay
[12] = molecular target: Receptor tyrosine-protein kinase erbB-2 (Homo sapiens, UniProt P04626); test: Inhibition of recombinant human His-tagged cytoplasmic ERBB2 expressed in baculovirus expression system by Z'-LYTE assay
Aurora kinase B = Aurora kinase B (Homo sapiens, UniProt Q96GD4); test: Inhibition of full-length recombinant human His-tagged AURKB expressed in baculovirus expression system by LanthaScreen assay
[13] = molecular target: High affinity nerve growth factor receptor (Homo sapiens, UniProt P04629); test: Inhibition of recombinant human His-tagged cytoplasmic NTRK1 expressed in baculovirus expression system by Z'-LYTE assay
[14] = molecular target: G protein-coupled receptor kinase 6 (Homo sapiens, UniProt P43250); test: Inhibition of full-length recombinant human GST-tagged GRK6 expressed in baculovirus expression system by Z'-LYTE assay

Chain of Aurora kinase B (Q96GD4 whole entry): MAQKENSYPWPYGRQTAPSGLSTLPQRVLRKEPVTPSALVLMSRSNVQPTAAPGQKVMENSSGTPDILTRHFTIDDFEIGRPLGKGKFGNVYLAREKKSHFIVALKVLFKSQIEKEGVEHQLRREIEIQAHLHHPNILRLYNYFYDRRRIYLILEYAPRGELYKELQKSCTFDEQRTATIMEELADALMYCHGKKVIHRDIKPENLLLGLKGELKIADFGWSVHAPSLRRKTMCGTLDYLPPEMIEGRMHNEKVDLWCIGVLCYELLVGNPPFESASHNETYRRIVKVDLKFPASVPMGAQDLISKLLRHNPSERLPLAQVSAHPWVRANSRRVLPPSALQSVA
Chain of Rho-associated protein kinase 2 (O75116 whole entry, the tested form may be a part): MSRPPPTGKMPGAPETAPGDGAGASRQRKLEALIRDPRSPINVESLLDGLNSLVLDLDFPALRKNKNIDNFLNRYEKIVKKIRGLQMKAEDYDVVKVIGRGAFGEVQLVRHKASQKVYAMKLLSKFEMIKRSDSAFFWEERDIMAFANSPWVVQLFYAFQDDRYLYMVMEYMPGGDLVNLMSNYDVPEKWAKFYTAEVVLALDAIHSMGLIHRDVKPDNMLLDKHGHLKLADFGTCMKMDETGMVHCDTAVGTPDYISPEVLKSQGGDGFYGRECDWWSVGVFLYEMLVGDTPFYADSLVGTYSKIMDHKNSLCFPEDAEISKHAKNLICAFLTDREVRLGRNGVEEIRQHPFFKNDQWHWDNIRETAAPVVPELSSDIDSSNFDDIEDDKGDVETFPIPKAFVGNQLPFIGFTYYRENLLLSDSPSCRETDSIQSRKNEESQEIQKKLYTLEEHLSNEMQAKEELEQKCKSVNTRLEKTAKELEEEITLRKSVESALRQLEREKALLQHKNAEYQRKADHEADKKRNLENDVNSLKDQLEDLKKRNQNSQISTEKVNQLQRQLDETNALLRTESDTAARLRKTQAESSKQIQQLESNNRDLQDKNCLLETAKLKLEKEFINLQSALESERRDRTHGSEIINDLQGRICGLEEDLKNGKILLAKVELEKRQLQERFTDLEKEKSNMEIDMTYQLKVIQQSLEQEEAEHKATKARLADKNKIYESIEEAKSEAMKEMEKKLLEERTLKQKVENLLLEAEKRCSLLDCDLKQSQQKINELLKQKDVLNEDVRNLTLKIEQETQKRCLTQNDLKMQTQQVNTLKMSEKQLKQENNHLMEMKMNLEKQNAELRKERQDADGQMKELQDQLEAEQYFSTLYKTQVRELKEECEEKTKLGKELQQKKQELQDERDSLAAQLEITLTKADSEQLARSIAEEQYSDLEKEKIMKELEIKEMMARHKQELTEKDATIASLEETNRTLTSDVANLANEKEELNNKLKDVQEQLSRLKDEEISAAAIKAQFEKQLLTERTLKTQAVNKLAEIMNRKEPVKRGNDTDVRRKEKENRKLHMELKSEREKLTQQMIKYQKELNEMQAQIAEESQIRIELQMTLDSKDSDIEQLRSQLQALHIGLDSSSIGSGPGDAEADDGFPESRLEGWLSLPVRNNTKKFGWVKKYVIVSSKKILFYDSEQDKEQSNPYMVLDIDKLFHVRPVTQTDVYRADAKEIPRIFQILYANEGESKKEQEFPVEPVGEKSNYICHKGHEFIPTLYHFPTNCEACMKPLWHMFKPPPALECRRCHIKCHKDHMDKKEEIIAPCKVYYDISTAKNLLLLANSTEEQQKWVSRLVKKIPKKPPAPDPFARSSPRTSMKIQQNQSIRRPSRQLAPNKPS
Chain of High affinity nerve growth factor receptor (P04629 whole entry): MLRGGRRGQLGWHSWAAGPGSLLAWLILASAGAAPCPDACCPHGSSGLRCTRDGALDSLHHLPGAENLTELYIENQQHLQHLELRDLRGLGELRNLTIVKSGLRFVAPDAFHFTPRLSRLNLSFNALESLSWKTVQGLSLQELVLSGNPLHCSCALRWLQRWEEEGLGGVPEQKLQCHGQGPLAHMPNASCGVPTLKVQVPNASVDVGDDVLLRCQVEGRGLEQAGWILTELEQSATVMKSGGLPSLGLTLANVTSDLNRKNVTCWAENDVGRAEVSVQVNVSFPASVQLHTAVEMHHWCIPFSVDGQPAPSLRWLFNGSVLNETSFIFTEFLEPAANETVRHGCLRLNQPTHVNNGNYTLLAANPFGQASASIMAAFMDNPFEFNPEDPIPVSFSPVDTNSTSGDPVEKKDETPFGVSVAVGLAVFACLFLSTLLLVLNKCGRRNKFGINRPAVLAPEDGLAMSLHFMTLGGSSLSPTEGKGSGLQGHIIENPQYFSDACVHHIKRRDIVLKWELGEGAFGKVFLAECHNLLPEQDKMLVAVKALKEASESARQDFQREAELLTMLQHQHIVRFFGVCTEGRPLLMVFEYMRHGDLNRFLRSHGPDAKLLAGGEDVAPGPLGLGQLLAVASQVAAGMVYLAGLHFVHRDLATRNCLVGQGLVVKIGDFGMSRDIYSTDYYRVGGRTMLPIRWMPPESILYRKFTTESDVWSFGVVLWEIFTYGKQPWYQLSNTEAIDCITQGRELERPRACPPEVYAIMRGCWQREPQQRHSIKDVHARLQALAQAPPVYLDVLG
Chain of Cyclin-dependent kinase 5/CDK5 activator 1 (Q00535 whole entry): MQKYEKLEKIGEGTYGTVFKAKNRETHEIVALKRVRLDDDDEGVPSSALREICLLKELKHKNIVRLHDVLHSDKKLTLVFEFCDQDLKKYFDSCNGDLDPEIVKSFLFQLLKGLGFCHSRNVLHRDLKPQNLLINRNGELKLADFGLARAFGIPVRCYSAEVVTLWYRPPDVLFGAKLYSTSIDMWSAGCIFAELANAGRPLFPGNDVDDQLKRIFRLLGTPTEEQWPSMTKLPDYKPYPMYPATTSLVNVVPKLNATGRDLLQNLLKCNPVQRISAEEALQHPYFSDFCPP
Chain of Cyclin-dependent kinase 5/CDK5 activator 1 (Q15078 whole entry, further chain): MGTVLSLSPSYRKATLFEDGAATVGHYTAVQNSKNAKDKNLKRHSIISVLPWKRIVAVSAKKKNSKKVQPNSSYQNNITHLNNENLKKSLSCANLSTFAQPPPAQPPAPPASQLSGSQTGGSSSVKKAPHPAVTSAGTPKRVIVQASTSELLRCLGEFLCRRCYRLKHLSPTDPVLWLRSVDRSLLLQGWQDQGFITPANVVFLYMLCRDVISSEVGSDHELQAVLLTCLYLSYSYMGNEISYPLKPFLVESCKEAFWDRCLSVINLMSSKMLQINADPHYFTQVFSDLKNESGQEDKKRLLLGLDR
Chain of Tyrosine-protein kinase JAK1 (P23458 whole entry, the tested form may be a part): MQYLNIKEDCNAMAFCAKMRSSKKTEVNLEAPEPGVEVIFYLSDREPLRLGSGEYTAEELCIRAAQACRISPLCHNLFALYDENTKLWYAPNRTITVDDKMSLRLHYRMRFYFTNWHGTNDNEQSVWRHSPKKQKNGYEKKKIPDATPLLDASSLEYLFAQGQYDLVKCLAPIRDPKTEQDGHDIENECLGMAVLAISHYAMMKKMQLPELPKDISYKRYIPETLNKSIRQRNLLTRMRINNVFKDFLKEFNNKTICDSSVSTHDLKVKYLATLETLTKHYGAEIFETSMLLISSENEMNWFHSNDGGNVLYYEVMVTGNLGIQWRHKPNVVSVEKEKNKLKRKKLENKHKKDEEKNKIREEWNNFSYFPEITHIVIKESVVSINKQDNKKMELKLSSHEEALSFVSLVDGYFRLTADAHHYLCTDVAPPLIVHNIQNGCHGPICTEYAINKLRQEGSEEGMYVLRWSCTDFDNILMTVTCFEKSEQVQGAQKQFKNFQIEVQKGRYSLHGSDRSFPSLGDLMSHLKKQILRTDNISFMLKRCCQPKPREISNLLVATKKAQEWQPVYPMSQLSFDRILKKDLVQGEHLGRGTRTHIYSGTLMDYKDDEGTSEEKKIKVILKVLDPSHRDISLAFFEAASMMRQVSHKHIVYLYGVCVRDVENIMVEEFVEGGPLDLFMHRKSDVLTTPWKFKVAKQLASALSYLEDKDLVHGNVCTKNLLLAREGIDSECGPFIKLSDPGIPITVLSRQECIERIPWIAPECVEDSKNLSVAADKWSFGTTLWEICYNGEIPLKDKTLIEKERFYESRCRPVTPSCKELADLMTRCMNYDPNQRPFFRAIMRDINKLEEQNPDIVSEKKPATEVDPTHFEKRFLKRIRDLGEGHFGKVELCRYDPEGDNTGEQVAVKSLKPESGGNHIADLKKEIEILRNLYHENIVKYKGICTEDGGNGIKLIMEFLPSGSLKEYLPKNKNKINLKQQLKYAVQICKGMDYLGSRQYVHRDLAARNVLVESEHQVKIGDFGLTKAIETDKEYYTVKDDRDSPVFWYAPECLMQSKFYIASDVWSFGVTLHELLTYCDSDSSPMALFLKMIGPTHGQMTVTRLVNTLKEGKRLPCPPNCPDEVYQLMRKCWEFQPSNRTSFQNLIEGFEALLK
Chain of RAC-alpha serine/threonine-protein kinase (P31749 whole entry, the tested form may be a part): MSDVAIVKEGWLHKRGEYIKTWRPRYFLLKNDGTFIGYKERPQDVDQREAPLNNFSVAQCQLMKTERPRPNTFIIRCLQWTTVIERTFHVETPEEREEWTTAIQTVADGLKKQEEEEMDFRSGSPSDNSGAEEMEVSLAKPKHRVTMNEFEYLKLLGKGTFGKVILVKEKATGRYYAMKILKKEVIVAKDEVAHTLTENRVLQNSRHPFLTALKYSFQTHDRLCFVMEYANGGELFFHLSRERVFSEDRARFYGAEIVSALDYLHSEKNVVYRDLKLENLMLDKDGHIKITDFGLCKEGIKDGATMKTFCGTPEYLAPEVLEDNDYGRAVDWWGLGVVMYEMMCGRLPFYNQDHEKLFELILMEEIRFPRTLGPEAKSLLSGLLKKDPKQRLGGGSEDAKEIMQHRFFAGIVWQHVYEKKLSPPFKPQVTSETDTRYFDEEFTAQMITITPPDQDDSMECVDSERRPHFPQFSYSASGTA

| SMILES | IC50 [1] [nM] | IC50 [2] [nM] | IC50 [3] [nM] | IC50 [4] [nM] | IC50 [5] [nM] | IC50 [6] [nM] | IC50 [7] [nM] | IC50 [8] [nM] | IC50 [9] [nM] | IC50 [10] [nM] | IC50 [11] [nM] | IC50 [12] [nM] | IC50 (Aurora kinase B) [nM] | IC50 [13] [nM] | IC50 [14] [nM] |
| --- | --- | --- | --- | --- | --- | --- | --- | --- | --- | --- | --- | --- | --- | --- | --- |
| Cn1cc(-c2cnc3c(-c4csc(C(=O)NCC(F)(F)F)c4)cnn3c2)cn1 | > 100000 | 560 | 42 | < 10 | 420 | > 100000 | 6200 | 4200 | < 10 | < 10 | 24000 | > 100000 | < 10 | 540 | > 100000 |
| Cc1sc(C(=O)N[C@@H]2[C@H](N)CCCC2(F)F)cc1-c1cnn2cc(Cl)cnc12 | 870 | 1100 | 8100 | 9100 | 390 | > 100000 | 2100 | 4300 | 61 | < 10 | 15000 | > 100000 | 4600 | 2100 | 1700 |
| O=C(NCC(F)(F)F)c1cc(-c2cnn3cc(-c4ccc(OCCN5CCCCC5)cc4)cnc23)cs1 | 24000 | 430 | 37 | < 10 | 450 | > 100000 | 8300 | 2300 | 19 | < 10 | 2800 | 35000 | 33 | 310 | 17000 |
| Cn1cc(-c2cnc3c(-c4csc(C(=O)N[C@@H]5CCCC[C@@H]5N)c4)cnn3c2)cn1 (racemic) | 80 | 52 | 3 | 1.3 | 24 | > 10000 | 24 | 220 | 4.4 | < 1 | 1200 | 1000 | 28 | 50 | 500 |
